# Laboratory results: US12539292B2, “BRM targeting compounds and associated methods of use” (Arvinas Operations, Inc., priority 2018, dated 2026)
# Where two headings read alike, the source gives them in different places.
# Biological target: T1, BRM (Homo sapiens, UniProt P51531)
# T1 construct: In-Cell Western Screen of BRM Degradation in SW1573 Cells; endogenous in cells; host or cells: SW1573
# Test: In-cell Western screen of BRM degradation in SW1573 cells (Dmax and DC50)
# Type: cell-based
# Procedure: In-Cell Western Screen of BRM Degradation in SW1573 Cells
# To assess BRM degradation (Dmax and DC50), cells were seeded at 8000/well in 96-well black/clear-bottom plates in 180 μL DMEM growth media (containing 1% pen-strep, 1% HEPES and 10% FBS) per well. Plates were incubated overnight to allow adhesion. The next morning cells were treated by adding 20 μL of 10× compound (1% DMSO) to appropriate wells and returned to incubator for overnight (18-20 hours). The final DMSO concentration was 0.1%.
# For processing, the plates were removed from incubator, the media was removed, and immediately 200 μL of cold (4° C.) DPBS was added to all wells. DPBS was then removed, and 50 μL of 4% paraformaldehyde (PFA) in DPBS (4° C.) was added to all wells, and the plates were incubated at room temperature for 20 minutes. PFA was then removed, and 200 μL of TBS-T containing 0.5% Triton X-100 was added to all wells, and the plates were incubated at room temperature for 30 minutes. TBS-T containing 0.5% Triton X-100 was then removed, and 50 μL of Li-Cor blocking solution was added, and the plates were incubated at room temperature for a minimum of one hour.
# The next day plates were washed three times with TBS-T, 200 μL per well. Fifty (50) μL of secondary antibody cocktail in LI-COR blocking solution (anti-rabbit_800 nm and anti-mouse_680 nm) was added to all wells (diluted 1:5000). The plates were incubated at room temperature for at least one hour while protected from light. The plates were washed twice with TBS-T, 200 μL per well.
# To read each plate TBS-T was removed, and each plate was inverted tapped on a paper towel. The plates were read on the LI-COR Odyssey with default intensity settings of 5.0 for both channels. LI-COR images were analyzed with the in-cell Western feature of Image Studio Lite.
# [1] = BRM degradation, SW1573 cells, read-out: DC50
# [2] = SW1573, % degraded, when tested at the top concentration of between 0.3 and 10 μM, read-out: BRM Dmax (%)
# [3] = target protein degradation, read-out: BRM DC50
# [4] = BRM degradation, SW1573 cells, Table 2D, read-out: *DC50
# [5] = BRM degradation, SW1573 cells, tested at the top concentration of between 0.3 and 10 μM, read-out: Dmax (%) (% degraded)
# [6] = BRM degradation, read-out: BRM DC50
# T1 sequence (P51531 whole entry): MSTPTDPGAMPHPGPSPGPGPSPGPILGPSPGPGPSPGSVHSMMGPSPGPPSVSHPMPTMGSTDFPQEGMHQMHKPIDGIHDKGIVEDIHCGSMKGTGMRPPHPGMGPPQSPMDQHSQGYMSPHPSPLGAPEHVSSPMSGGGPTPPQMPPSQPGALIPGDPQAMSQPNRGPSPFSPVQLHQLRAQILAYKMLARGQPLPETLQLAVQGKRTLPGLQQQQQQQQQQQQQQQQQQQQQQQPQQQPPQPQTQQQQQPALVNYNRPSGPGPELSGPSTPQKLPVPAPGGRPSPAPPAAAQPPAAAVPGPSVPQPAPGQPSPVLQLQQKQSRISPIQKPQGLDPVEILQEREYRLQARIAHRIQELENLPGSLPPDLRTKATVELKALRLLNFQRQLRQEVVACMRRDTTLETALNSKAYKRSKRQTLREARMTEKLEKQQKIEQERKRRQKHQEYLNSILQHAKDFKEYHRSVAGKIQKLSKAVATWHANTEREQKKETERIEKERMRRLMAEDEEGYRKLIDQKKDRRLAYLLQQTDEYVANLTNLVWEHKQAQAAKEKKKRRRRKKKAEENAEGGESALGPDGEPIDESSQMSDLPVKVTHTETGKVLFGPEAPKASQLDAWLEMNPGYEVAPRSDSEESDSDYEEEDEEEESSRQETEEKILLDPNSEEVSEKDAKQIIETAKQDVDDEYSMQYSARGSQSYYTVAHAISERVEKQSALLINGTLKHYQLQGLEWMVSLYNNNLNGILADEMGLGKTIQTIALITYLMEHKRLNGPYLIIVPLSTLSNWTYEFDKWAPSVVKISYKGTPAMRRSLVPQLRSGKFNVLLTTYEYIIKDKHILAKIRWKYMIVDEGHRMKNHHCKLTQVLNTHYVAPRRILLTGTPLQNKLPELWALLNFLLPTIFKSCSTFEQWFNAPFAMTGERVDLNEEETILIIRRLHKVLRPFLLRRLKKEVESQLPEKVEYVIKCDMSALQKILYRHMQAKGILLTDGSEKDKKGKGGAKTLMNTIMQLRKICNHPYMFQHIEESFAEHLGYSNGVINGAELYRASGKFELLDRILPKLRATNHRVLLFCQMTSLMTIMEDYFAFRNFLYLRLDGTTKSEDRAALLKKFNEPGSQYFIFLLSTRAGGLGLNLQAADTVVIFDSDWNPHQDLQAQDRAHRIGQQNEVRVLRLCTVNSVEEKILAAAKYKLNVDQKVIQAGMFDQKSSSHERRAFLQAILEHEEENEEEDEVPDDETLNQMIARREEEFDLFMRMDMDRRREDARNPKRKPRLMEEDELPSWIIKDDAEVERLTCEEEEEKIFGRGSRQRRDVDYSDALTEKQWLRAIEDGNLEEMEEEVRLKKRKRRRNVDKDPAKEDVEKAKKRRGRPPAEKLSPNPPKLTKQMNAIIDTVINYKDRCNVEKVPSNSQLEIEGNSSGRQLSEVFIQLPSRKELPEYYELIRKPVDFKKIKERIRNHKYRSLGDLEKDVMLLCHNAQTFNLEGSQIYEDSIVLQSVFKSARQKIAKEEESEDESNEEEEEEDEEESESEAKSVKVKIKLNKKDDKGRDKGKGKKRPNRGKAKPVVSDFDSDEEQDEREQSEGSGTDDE
smiles,measurement,setting,value
"Cc1ncsc1-c1ccc([C@H](C)NC(=O)[C@@H]2C[C@@H](O)CN2C(=O)[C@H](c2onc(OCCN3CCC(O[C@H]4C[C@H](Oc5cc(N6C7CCC6CN(c6cc(-c8ccccc8O)nnc6N)C7)ccn5)C4)CC3)c2Cl)C(C)C)cn1 [compound 222, (2S,4R)-1-((2S)-2-(3-(2-(4-((1r,3S)-3-((4-(3-(3-amino-6-(2-hydroxyphenyl)pyridazin-4-yl)-3,8-diazabicyclo[3.2.1]octan-8-yl)pyridin-2-yl)oxy)cyclobutoxy)piperidin-1-yl)ethoxy)-4-chloroisoxazol-5-yl)-3-methylbutanoyl)-4-hydroxy-N-((S)-1-(6-(4-methylthiazol-5-yl)pyridin-3-yl)ethyl)pyrrolidine-2-carboxamide]",DC50,[1],> 30 nM
"Cc1ncsc1-c1ccc([C@H](C)NC(=O)[C@@H]2C[C@@H](O)CN2C(=O)[C@@H](c2cc(N3CCC(CN4CCC(O[C@H]5C[C@H](Oc6cc(N7C8CCC7CN(c7cc(-c9ccccc9O)nnc7N)C8)ccn6)C5)CC4)CC3)no2)C(C)C)c(O)c1 [compound 690, (2S,4R)-1-((2R)-2-(3-(4-((4-((1r,3r)-3-((4-(3-(3-amino-6-(2-hydroxyphenyl)pyridazin-4-yl)-3,8-diazabicyclo[3.2.1]octan-8-yl)pyridin-2-yl)oxy)cyclobutoxy)piperidin-1-yl)methyl)piperidin-1-yl)isoxazol-5-yl)-3-methylbutanoyl)-4-hydroxy-N-((S)-1-(2-hydroxy-4-(4-methylthiazol-5-yl)phenyl)ethyl)pyrrolidine-2-carboxamide]",DC50,[1],< 2.5 nM
same,Dmax,"BRM degradation, SW1573 cells, read-out: Dmax (% degraded)",> 75%
"Cc1ncsc1-c1ccc([C@H](C)NC(=O)[C@@H]2C[C@@H](O)CN2C(=O)[C@H](c2cc(OCCC3CCN(C(=O)[C@H]4C[C@H](CN5CCC(n6cc(-c7cc(-c8ccccc8O)nnc7N)cn6)CC5)C4)CC3)no2)C(C)C)cc1 [compound 467, (2S,4R)-1-((S)-2-(3-(2-(1-((1r,3S)-3-((4-(4-(3-amino-6-(2-hydroxyphenyl)pyridazin-4-yl)-1H-pyrazol-1-yl)piperidin-1-yl)methyl)cyclobutane-1-carbonyl)piperidin-4-yl)ethoxy)isoxazol-5-yl)-3-methylbutanoyl)-4-hydroxy-N-((S)-1-(4-(4-methylthiazol-5-yl)phenyl)ethyl)pyrrolidine-2-carboxamide]",Dmax,[2],> 75%
same,DC50,[3],< 2.5 nM
"Cc1ncsc1-c1ccc([C@@H](NC(=O)[C@@H]2C[C@@H](O)CN2C(=O)[C@@H](c2cc(N3CCC(CN4CCC(O[C@H]5C[C@H](Oc6cc(N7C8CCC7CN(c7cc(-c9ccccc9O)nnc7N)C8)ccn6)C5)CC4)CC3)no2)C(C)C)C(F)F)cc1 [compound 572, (2S,4R)-1-((2R)-2-(3-(4-((4-((1r,3r)-3-((4-(3-(3-amino-6-(2-hydroxyphenyl)pyridazin-4-yl)-3,8-diazabicyclo[3.2.1]octan-8-yl)pyridin-2-yl)oxy)cyclobutoxy)piperidin-1-yl)methyl)piperidin-1-yl)isoxazol-5-yl)-3-methylbutanoyl)-N-((R)-2,2-difluoro-1-(4-(4-methylthiazol-5-yl)phenyl)ethyl)-4-hydroxypyrrolidine-2-carboxamide]",Dmax,"BRM degradation, SW1573 cells, Table 2D, read-out: **Dmax (%) (% degraded)",> 75%
same,DC50,[4],< 2.5 nM
"Cc1ncsc1-c1ccc([C@H](C)NC(=O)[C@@H]2C[C@@H](O)CN2C(=O)[C@H](c2cc(N3CC(COCCOc4cc(N5C6CCC5CN(c5cc(-c7ccccc7O)nnc5N)C6)ccn4)C3)no2)C(C)C)cc1 [compound 549, (2S,4R)-1-((2S)-2-(3-(3-((2-((4-(3-(3-amino-6-(2-hydroxyphenyl)pyridazin-4-yl)-3,8-diazabicyclo[3.2.1]octan-8-yl)pyridin-2-yl)oxy)ethoxy)methyl)azetidin-1-yl)isoxazol-5-yl)-3-methylbutanoyl)-4-hydroxy-N-((S)-1-(4-(4-methylthiazol-5-yl)phenyl)ethyl)pyrrolidine-2-carboxamide]",DC50,[4],> 30 nM
"Cc1ncsc1-c1ccc([C@H](C)NC(=O)[C@@H]2C[C@@H](O)CN2C(=O)[C@@H](c2onc(OCCN3CCC(O[C@H]4C[C@H](Oc5cc(N6C7CCC6CN(c6cc(-c8ccccc8O)nnc6N)C7)ccn5)C4)CC3)c2F)C(C)C)cn1 [compound 270, (2S,4R)-1-((2R)-2-(3-(2-(4-((1r,3R)-3-((4-(3-(3-amino-6-(2-hydroxyphenyl)pyridazin-4-yl)-3,8-diazabicyclo[3.2.1]octan-8-yl)pyridin-2-yl)oxy)cyclobutoxy)piperidin-1-yl)ethoxy)-4-fluoroisoxazol-5-yl)-3-methylbutanoyl)-4-hydroxy-N-((S)-1-(6-(4-methylthiazol-5-yl)pyridin-3-yl)ethyl)pyrrolidine-2-carboxamide]",DC50,[1],< 2.5 nM
same,Dmax,[5],> 75%
"Cc1cc([C@H](C(=O)N2C[C@H](O)C[C@H]2C(=O)N[C@@H](COCCCCCc2cc(-c3ccccc3O)nnc2N)c2ccc(-c3scnc3C)cc2)C(C)C)on1 [compound 530, (2S,4R)-N-((R)-2-((5-(3-amino-6-(2-hydroxyphenyl)pyridazin-4-yl)pentyl)oxy)-1-(4-(4-methylthiazol-5-yl)phenyl)ethyl)-4-hydroxy-1-((R)-3-methyl-2-(3-methylisoxazol-5-yl)butanoyl)pyrrolidine-2-carboxamide]",DC50,[6],> 30 nM
"CC(C)[C@@H](C(=O)N1C[C@H](O)C[C@H]1C(=O)N[C@@H](C)c1ccc(C#N)cc1)c1cc(OCC#Cc2ncc(O[C@H]3C[C@H](Oc4cc(N5C6CCC5CN(c5cc(-c7ccccc7O)nnc5N)C6)ccn4)C3)cn2)no1 [compound 387, (2S,4R)-1-((2R)-2-(3-((3-(5-((1r,3R)-3-((4-(3-(3-amino-6-(2-hydroxyphenyl)pyridazin-4-yl)-3,8-diazabicyclo[3.2.1]octan-8-yl)pyridin-2-yl)oxy)cyclobutoxy)pyrimidin-2-yl)prop-2-yn-1-yl)oxy)isoxazol-5-yl)-3-methylbutanoyl)-N-((S)-1-(4-cyanophenyl)ethyl)-4-hydroxypyrrolidine-2-carboxamide]",Dmax,[2],> 75%
same,DC50,[3],< 2.5 nM
"Cc1ncsc1-c1ccc(CNC(=O)[C@@H]2C[C@@H](O)CN2C(=O)[C@@H](c2cc(OCC#Cc3ccc(O[C@H]4C[C@H](Oc5cc(N6C7CCC6CN(c6cc(-c8ccccc8O)nnc6N)C7)ccn5)C4)cn3)no2)C(C)C)cc1 [compound 221, (2S,4R)-1-((2R)-2-(3-((3-(5-((1r,3R)-3-((4-(3-(3-amino-6-(2-hydroxyphenyl)pyridazin-4-yl)-3,8-diazabicyclo[3.2.1]octan-8-yl)pyridin-2-yl)oxy)cyclobutoxy)pyridin-2-yl)prop-2-yn-1-yl)oxy)isoxazol-5-yl)-3-methylbutanoyl)-4-hydroxy-N-(4-(4-methylthiazol-5-yl)benzyl)pyrrolidine-2-carboxamide]",DC50,[1],< 2.5 nM
same,Dmax,[5],> 75%
"Cc1cc([C@@H](C(=O)N2C[C@H](O)C[C@H]2C(=O)N[C@H](COCCOCCNc2ccc(-c3ccccc3O)nn2)c2ccc(-c3scnc3C)cc2)C(C)C)on1 [compound 523, (2S,4R)-4-hydroxy-N-((S)-2-(2-(2-((6-(2-hydroxyphenyl)pyridazin-3-yl)amino)ethoxy)ethoxy)-1-(4-(4-methylthiazol-5-yl)phenyl)ethyl)-1-((S)-3-methyl-2-(3-methylisoxazol-5-yl)butanoyl)pyrrolidine-2-carboxamide]",DC50,[6],> 30 nM
"Cc1ncsc1-c1ccc([C@@H](CN)NC(=O)[C@@H]2C[C@@H](O)CN2C(=O)[C@@H](c2cc(OCCN3CCN(CCOc4cc(N5C6CCC5CN(c5cc(-c7ccccc7O)nnc5N)C6)ccn4)CC3)no2)C(C)C)cc1 [compound 256, (2S,4R)-N-((S)-2-amino-1-(4-(4-methylthiazol-5-yl)phenyl)ethyl)-1-((2R)-2-(3-(2-(4-(2-((4-(3-(3-amino-6-(2-hydroxyphenyl)pyridazin-4-yl)-3,8-diazabicyclo[3.2.1]octan-8-yl)pyridin-2-yl)oxy)ethyl)piperazin-1-yl)ethoxy)isoxazol-5-yl)-3-methylbutanoyl)-4-hydroxypyrrolidine-2-carboxamide]",DC50,[1],> 30 nM
"Cc1ncsc1-c1ccc([C@H](C)NC(=O)[C@@H]2C[C@@H](O)CN2C(=O)[C@@H](c2cc(CCCOCCOCCOCCn3cc(-c4cc(-c5ccccc5O)nnc4N)cn3)no2)C(C)C)cc1 [compound 110, (2S,4R)-1-((R)-2-(3-(3-(2-(2-(2-(4-(3-amino-6-(2-hydroxyphenyl)pyridazin-4-yl)-1H-pyrazol-1-yl)ethoxy)ethoxy)ethoxy)propyl)isoxazol-5-yl)-3-methylbutanoyl)-4-hydroxy-N-((S)-1-(4-(4-methylthiazol-5-yl)phenyl)ethyl)pyrrolidine-2-carboxamide]",DC50,[1],< 2.5 nM
same,Dmax,"BRM degradation, SW1573 cells, when tested at the top concentration of between 0.3 and 10 μM, read-out: Dmax (%) (% degraded)",> 75%
